Reference: patent US20210138025A1, “CATIONIC PEPTIDES WITH IMMUNOMODULATORY AND/OR ANTI-BIOFILM ACTIVITIES” (priority 2018, published 2021)
Where two headings read alike, the source gives them in different places. No end group written: not given here.

Key:
S. aureus (Sau) [1] = assay type: cell-based
E. coli (Ec) [2] = assay type: cell-based
Method: (§1) The same strains as in Table 18 were assessed for Minimal Biofilm Inhibitory Concentrations (MBIC) (Table 19). Italics=excellent activity (less than or equal to 4 μg/ml). ND=Not determined. Peptides 3013, 3015 and 3016 inhibited biofilm growth in the largest number of bacterial strains (5, 5 and 6 out of 13 strains, respectively).
(§2) In addition, several peptides expressed preferential activity vs. biofilms (MBIC) cf. planktonic cells (MIC) (Table 20).

S. aureus (Sau) [3] = assay type: cell-based; remark: listed apart in the source
Method: as §1, §2

[4] = tested on: Staphylococcus epidermidis (Se); assay type: cell-based
Method: (§3) The following strains were assessed vs. Staphylococcus epidermidis (Se), Pseudomonas aeruginosa (Pa), Streptococcus dysgalactiae (Sd), Pasteurella multocida (Pm), Streptococcus agalactiae (Sa), Streptococcus uberis (Su), Streptococcus suis (Ss), Mannheimia haemolytica (Mh), Bordatella bronchiseptica (Bb), Histophilus somnus (Hs), and Staphylococcus pseudintermedius (Sp) (Table 18) for Minimal Inhibitory Concentrations (MIC). Italics=excellent activity (less than or equal to 4 μg/ml).

[5] = tested on: Mannheimia haemolytica (Mh); assay type: cell-based
Method: as §3

[6] = tested on: Streptococcus uberis (Su); assay type: cell-based
Method: as §3

[7] = tested on: Streptococcus dysgalactiae (Sd); assay type: cell-based
Method: as §3

Histophilus somnus (Hs) [8] = assay type: cell-based
Method: as §3

[9] = tested on: Pasteurella multocida (Pm); assay type: cell-based
Method: as §3

[10] = tested on: Bordatella bronchiseptica (Bb); assay type: cell-based
Method: as §3

[11] = tested on: Pseudomonas aeruginosa (Pa); assay type: cell-based
Method: as §3

[12] = tested on: Streptococcus agalactiae (Sa); assay type: cell-based
Method: as §3

[13] = tested on: Staphylococcus pseudintermedius (Sp); assay type: cell-based
Method: as §3

Streptococcus suis (Ss) [14] = assay type: cell-based
Method: as §3

E. coli (Ec) [15] = assay type: cell-based; remark: listed apart in the source
[16] = tested on: planktonic methicillin resistant S. aureus; assay: microbe, parasite or virus in culture; assay type: cell-based, Staphylococcus aureus
[17] = tested on: Staphylococcus epidermidis (Se); assay type: cell-based; remark: listed apart in the source
Method: as §1

[18] = tested on: Streptococcus uberis (Su); assay type: cell-based; remark: listed apart in the source
Method: as §1

[19] = tested on: Streptococcus dysgalactiae (Sd); assay type: cell-based; remark: listed apart in the source
Method: as §1

Histophilus somnus (Hs) [20] = assay type: cell-based; remark: listed apart in the source
Method: as §1

[21] = tested on: Pasteurella multocida (Pm); assay type: cell-based; remark: listed apart in the source
Method: as §1

[22] = tested on: Bordatella bronchiseptica (Bb); assay type: cell-based; remark: listed apart in the source
Method: as §1

[23] = tested on: Pseudomonas aeruginosa (Pa); assay type: cell-based; remark: listed apart in the source
Method: as §1

[24] = tested on: Streptococcus agalactiae (Sa); assay type: cell-based; remark: listed apart in the source
Method: as §1

[25] = tested on: Staphylococcus pseudintermedius (Sp); assay type: cell-based; remark: listed apart in the source
Method: as §1

Streptococcus suis (Ss) [26] = assay type: cell-based; remark: listed apart in the source
Method: as §1

PBMCs = assay: Cytotoxicity towards PBMCs, lactate dehydrogenase (LDH) release assay (Tables 6, 7); details: SPOT synthesized peptide ~25 μM, PBMCs from 3 human donors; Table 6
[27] = tested on: Mannheimia haemolytica (Mh); assay type: cell-based; remark: listed apart in the source
Method: as §1

[28] = planktonic methicillin resistant
[29] = planktonic methicillin resistant S. aureus, broth microdilution in Mueller Hinton Broth (MHB), mean of three biological replicates
[30] = planktonic methicillin resistant S. aureus, broth microdilution in Tryptic Soy Broth (TSB) supplemented with 1% glucose, mean of three biological replicates

## AVAKWALKLWKQ-NH2 [Peptide 3009, AVAKWALKLWKQ]
S. aureus (Sau) [1]; Sau
  MIC S. aureus: >64 µg/mL
  MIC Sau: >64 µg/mL
E. coli (Ec) [2]; Ec
  MBIC: 32 µg/mL
  MBIC E. coli: 32 µg/mL
S. aureus (Sau) [3]; Sau
  MBIC: 64 µg/mL
  MBIC S. aureus: 64 µg/mL
[4]
  MIC Se: >64 µg/mL
[5]
  MIC Mh: >64 µg/mL
[6]
  MIC Su: 32 µg/mL
[7]
  MIC Sd: 32 µg/mL
Histophilus somnus (Hs) [8]
  MIC Hs: 64 µg/mL
[9]
  MIC Pm: >64 µg/mL
[10]
  MIC Bb: >64 µg/mL
[11]
  MIC Pa: >64 µg/mL
[12]
  MIC Sa: >64 µg/mL
[13]
  MIC Sp: 4 µg/mL
Streptococcus suis (Ss) [14]
  MIC Ss: >64 µg/mL
E. coli (Ec) [15]; Ec
  MIC E. coli: >64 µg/mL
  MIC Ec: >64 µg/mL
[16]; [28]
  MIC (μM) MHB: >64 µM
  MIC (μM) TSB with 1% Glucose: >64 µM
[17]
  MBIC: >64 µg/mL
[18]
  MBIC: 16 µg/mL
[19]
  MBIC: 16 µg/mL
Histophilus somnus (Hs) [20]
  MBIC: 16 µg/mL
[21]
  MBIC: 16 µg/mL
[22]
  MBIC: 64 µg/mL
[23]
  MBIC: >64 µg/mL
[24]
  MBIC: >64 µg/mL
[25]
  MBIC: 8 µg/mL
Streptococcus suis (Ss) [26]
  MBIC: 16 µg/mL
PBMCs
  % Toxicity (LDH Release): −3.2%

## AVKWLGWILAKK-NH2 [Peptide 3016, AVKWLGWILAKK]
S. aureus (Sau) [1]; Sau
  MIC S. aureus: >64 µg/mL
  MIC Sau: >64 µg/mL
E. coli (Ec) [2]; Ec
  MBIC: 32 µg/mL
  MBIC E. coli: 32 µg/mL
S. aureus (Sau) [3]; Sau
  MBIC: 4 µg/mL
  MBIC S. aureus: 4 µg/mL
[4]
  MIC Se: >64 µg/mL
[5]
  MIC Mh: >64 µg/mL
[6]
  MIC Su: 16 µg/mL
[7]
  MIC Sd: >64 µg/mL
Histophilus somnus (Hs) [8]
  MIC Hs: 16 µg/mL
[9]
  MIC Pm: >64 µg/mL
[10]
  MIC Bb: 64 µg/mL
[11]
  MIC Pa: >64 µg/mL
[12]
  MIC Sa: 8 µg/mL
[13]
  MIC Sp: 8 µg/mL
Streptococcus suis (Ss) [14]
  MIC Ss: 32 µg/mL
E. coli (Ec) [15]; Ec
  MIC E. coli: 64 µg/mL
  MIC Ec: 64 µg/mL
[16]; [28]
  MIC (μM) MHB: >64 µM
  MIC (μM) TSB with 1% Glucose: >64 µM
[17]
  MBIC: 4 µg/mL
[27]
  MBIC: >64 µg/mL
[18]
  MBIC: 8 µg/mL
[19]
  MBIC: >64 µg/mL
Histophilus somnus (Hs) [20]
  MBIC: 4 µg/mL
[21]
  MBIC: 8 µg/mL
[22]
  MBIC: 64 µg/mL
[23]
  MBIC: 32 µg/mL
[24]
  MBIC: 64 µg/mL
[25]
  MBIC: 8 µg/mL
Streptococcus suis (Ss) [26]
  MBIC: 32 µg/mL
PBMCs
  % Toxicity (LDH Release): 0.8%

## VIKWLLKILRAI-NH2 [Peptide 3001, VIKWLLKILRAI]
S. aureus (Sau) [1]; Sau
  MIC S. aureus: 2 µg/mL
E. coli (Ec) [2]; Ec
  MBIC E. coli: 2 µg/mL
S. aureus (Sau) [3]; Sau
  MBIC S. aureus: <1 µg/mL
E. coli (Ec) [15]; Ec
  MIC E. coli: 4 µg/mL
[16]; [28]
  MIC (μM) MHB: 1 µM
  MIC (μM) TSB with 1% Glucose: 2 µM
PBMCs
  % Toxicity (LDH Release): 64.4%

## VLKIKVKIWVVK-NH2 [Peptide 3007, VLKIKVKIWVVK]
S. aureus (Sau) [1]; planktonic cells, Table 20
  MIC S. aureus: 16 µg/mL
E. coli (Ec) [2]; biofilms, Table 20
  MBIC E. coli: 4 µg/mL
S. aureus (Sau) [3]; biofilms, Table 20
  MBIC S. aureus: 2 µg/mL
E. coli (Ec) [15]; planktonic cells, Table 20
  MIC E. coli: 8 µg/mL
[16]; [29]
  MIC (μM) MHB: 16 µM
[16]; [30]
  MIC (μM) TSB with 1% Glucose: >64 µM
PBMCs
  % Toxicity (LDH Release): 2%

## VLQIKKVLRLLL-NH2 [Peptide 3011, VLQIKKVLRLLL]
S. aureus (Sau) [1]; planktonic cells, Table 20
  MIC S. aureus: 64 µg/mL
E. coli (Ec) [2]; biofilms, Table 20
  MBIC E. coli: 4 µg/mL
S. aureus (Sau) [3]; biofilms, Table 20
  MBIC S. aureus: 2 µg/mL
E. coli (Ec) [15]; planktonic cells, Table 20
  MIC E. coli: 8 µg/mL
[16]; [29]
  MIC (μM) MHB: 8 µM
[16]; [30]
  MIC (μM) TSB with 1% Glucose: 16 µM
PBMCs
  % Toxicity (LDH Release): 15.7%

## VQRIIWLRVKIV-NH2 [Peptide 3023, VQRIIWLRVKIV]
S. aureus (Sau) [1]; Sau
  MIC S. aureus: 4 µg/mL
E. coli (Ec) [2]; Ec
  MBIC E. coli: 1 µg/mL
S. aureus (Sau) [3]; Sau
  MBIC S. aureus: 2 µg/mL
E. coli (Ec) [15]; Ec
  MIC E. coli: 2 µg/mL
[16]; [28]
  MIC (μM) MHB: 16 µM
  MIC (μM) TSB with 1% Glucose: >64 µM
PBMCs
  % Toxicity (LDH Release): −3%

## WKKVQWLKRLLL-NH2 [Peptide 3003, WKKVQWLKRLLL]
S. aureus (Sau) [1]; Sau
  MIC S. aureus: 16 µg/mL
E. coli (Ec) [2]; Ec
  MBIC E. coli: 2 µg/mL
S. aureus (Sau) [3]; Sau
  MBIC S. aureus: 1 µg/mL
E. coli (Ec) [15]; Ec
  MIC E. coli: 4 µg/mL
[16]; [28]
  MIC (μM) MHB: 4 µM
  MIC (μM) TSB with 1% Glucose: 16 µM
PBMCs
  % Toxicity (LDH Release): 22.5%

## WQGWAKIWVVRI-NH2 [Peptide 3019, WQGWAKIWVVRI]
S. aureus (Sau) [1]; Sau
  MIC S. aureus: 4 µg/mL
E. coli (Ec) [2]; Ec
  MBIC E. coli: 2 µg/mL
S. aureus (Sau) [3]; Sau
  MBIC S. aureus: 2 µg/mL
E. coli (Ec) [15]; Ec
  MIC E. coli: 4 µg/mL
[16]; [28]
  MIC (μM) MHB: 8 µM
  MIC (μM) TSB with 1% Glucose: 32 µM
PBMCs
  % Toxicity (LDH Release): −3.1%

## WVGVIIKWGLKL-NH2 [Peptide 3018, WVGVIIKWGLKL]
S. aureus (Sau) [1]; Sau
  MIC S. aureus: 2 µg/mL
E. coli (Ec) [2]; Ec
  MBIC E. coli: 2 µg/mL
S. aureus (Sau) [3]; Sau
  MBIC S. aureus: 1 µg/mL
E. coli (Ec) [15]; Ec
  MIC E. coli: 4 µg/mL
[16]; [28]
  MIC (μM) MHB: 2 µM
  MIC (μM) TSB with 1% Glucose: 4 µM
PBMCs
  % Toxicity (LDH Release): −0.3%
